# Measured values taken from patent publication US20030237103A1, “Methods and compositions for pharmacological and toxicological evaluation of test agents” (priority 2002, published 2003).
# Assays:
# [1] = tested on: Panel and outbred (CD-IGS) rat strains; assay: Clinical chemistry endpoints of cisplatin-treated vs. vehicle rats; assay type: in vivo; parameters: T-test value AST / T-test value ALT: unit not given here; details: cisplatin 5 mg/Kg vs. vehicle
# [2] = tested on: Panel and outbred (CD-IGS) rat strains; assay: Proteinuria, glucose excretion and renal histology after cisplatin; assay type: in vivo; details: 5 mg/Kg cisplatin
# [3] = tested on: rat liver peroxisomal fatty-acyl CoA oxidase; assay: Fluorometric assay of liver peroxisomal fatty-acyl CoA oxidase (FAO) activity after clofibrate; assay type: in vivo; details: CD-IGS rats
# Description: Peroxisomal fractions from livers of each strain were measured for FAO activity. In order to account for intra-strain variability, graphed are the average values derived by subtracting the vehicle FAO (average) from each individual drug induced FAO. The y-axis represents the FAO activity (nmol H2O2 per minute-mg peroximal protein).
# The assay was done by using a fluorometric assay for rat liver peroxisomal fafty-acyl CoA oxidase activity (FAO). The first step of this assay uses a palmitoyl-CoA dependent NAD+ reducing system to oxidize FAO and produce H2O2. The H2O2 is then coupled in a peroxidase catalyzed reaction to the oxidation of scopoletin, a naturally fluorescent compound. A fall in fluorescence of the sample indicates an increase in FAO activity which subsequently reflects the increase in the fatty acid oxidase in the liver.
# Six clofibrate samples and four vehicle samples were individually tested for FAO activity in duplicate tests. Using an H2O2 standard curve enables the change in fluorescence to be converted to FAO activity units (Walusimbi-Kisitu, M. and E. H. Harrison, J. Lipid Res. 24(8):1077-1084, 1983).
# [4] = tested on: Panel, CD-IGS and parental rat strains; assay: Plasma triglyceride lowering by clofibrate; assay type: in vivo; details: between WKY×LEW, WKY×BN and WKY×F344; 250 mg/Kg
# Description: Triglyceride levels in plasma were measured following euthanasia on day 7. Plotted are the percent differences in triglyceride values in a particular drug treatment group.
# [5] = tested on: Panel, CD-IGS and parental rat strains; assay: Liver histology after clofibrate; assay type: in vivo
# Description: Hypolipidemic drugs, such as clofibrate, commonly induce peroxisomal proliferation and an increase in the activity of peroxisomal beta-oxidation pathway. We looked for these changes in our rats by histological analysis of a section of the left lateral lobe from livers of either clofibrate or vehicle treated rats. While we could detect cellular differences (e.g. hepatocelluar hypertrophy, hepatocellular vacuolization, anisokaryosis and portal lymphocytic infiltrates) among the clofibrate treated livers versus the vehicle controls within any strain.
# [6] = tested on: Panel, CD-IGS and parental rat strains; details: in vivo, 250 mg/kg
# Description: Alanine transferase (ALT) levels in plasma an index of liver damage were measured in outbred and inbred strains (top panel) and the Panel F1 hybrids (bottom panel) following euthanasia on day 7. Plotted are the average ALT values for drug (left) and vehicle (right) within a particular drug treatment group (designated by strain). The number of animals tested in each group is denoted below the strain designation in parenthesis as # drug treated animas/#vehicle treated animals.
# We delivered the clofibrate orally by gavage (250 mg/Kg in hydroxyproply methyl cellulose) to the rats on 6 consecutive days.
smiles,measurement,setting,value
N.N.[Cl][Pt][Cl] [cisplatin],T-test value ALB,[1]; BNxF344 rats,0.111
same,T-test value ALP,[1]; BNxF344 rats,0.157
same,T-test value ALT,[1]; BNxF344 rats,0.600
same,T-test value ANION GAP,[1]; BNxF344 rats,0.069
same,T-test value AST,[1]; BNxF344 rats,0.780
same,T-test value BICARB,[1]; BNxF344 rats,0.003
same,T-test value BUN,[1]; BNxF344 rats,0.002
same,T-test value CA,[1]; BNxF344 rats,0.642
same,T-test value CHOL,[1]; BNxF344 rats,0.001
same,T-test value CREAT,[1]; BNxF344 rats,0.001
same,T-test value GGT,[1]; BNxF344 rats,0.351
same,T-test value GLOB,[1]; BNxF344 rats,0.116
same,T-test value GLU,[1]; BNxF344 rats,0.477
same,T-test value K,[1]; BNxF344 rats,0.133
same,T-test value NA,[1]; BNxF344 rats,0.851
same,T-test value PHOS,[1]; BNxF344 rats,0.230
same,T-test value TBILI,[1]; BNxF344 rats,0.005
same,T-test value TP,[1]; BNxF344 rats,0.877
same,T-test value TRIG,[1]; BNxF344 rats,0.153
same,T-test value ALB,[1]; CD-IGS rats,0.096
same,T-test value ALP,[1]; CD-IGS rats,0.567
same,T-test value ALT,[1]; CD-IGS rats,0.732
same,T-test value ANION GAP,[1]; CD-IGS rats,0.440
same,T-test value AST,[1]; CD-IGS rats,0.433
same,T-test value BICARB,[1]; CD-IGS rats,0.436
same,T-test value BUN,[1]; CD-IGS rats,0.003
same,T-test value CA,[1]; CD-IGS rats,0.268
same,T-test value CHOL,[1]; CD-IGS rats,0.393
same,T-test value CREAT,[1]; CD-IGS rats,0.002
same,T-test value GGT,[1]; CD-IGS rats,0.351
same,T-test value GLOB,[1]; CD-IGS rats,0.750
same,T-test value GLU,[1]; CD-IGS rats,0.965
same,T-test value K,[1]; CD-IGS rats,0.465
same,T-test value NA,[1]; CD-IGS rats,0.095
same,T-test value PHOS,[1]; CD-IGS rats,0.943
same,T-test value TBILI,[1]; CD-IGS rats,0.742
same,T-test value TP,[1]; CD-IGS rats,0.080
same,T-test value TRIG,[1]; CD-IGS rats,0.133
same,T-test value ALB,[1]; LEWxBN rats,0.000
same,T-test value ALP,[1]; LEWxBN rats,0.001
same,T-test value ALT,[1]; LEWxBN rats,0.593
same,T-test value ANION GAP,[1]; LEWxBN rats,0.058
same,T-test value AST,[1]; LEWxBN rats,0.341
same,T-test value BICARB,[1]; LEWxBN rats,0.016
same,T-test value BUN,[1]; LEWxBN rats,0.000
same,T-test value CA,[1]; LEWxBN rats,0.333
same,T-test value CHOL,[1]; LEWxBN rats,0.000
same,T-test value CREAT,[1]; LEWxBN rats,0.000
same,T-test value GGT,[1]; LEWxBN rats,0.339
same,T-test value GLOB,[1]; LEWxBN rats,0.007
same,T-test value GLU,[1]; LEWxBN rats,0.024
same,T-test value K,[1]; LEWxBN rats,0.036
same,T-test value NA,[1]; LEWxBN rats,0.230
same,T-test value PHOS,[1]; LEWxBN rats,0.063
same,T-test value TBILI,[1]; LEWxBN rats,0.463
same,T-test value TP,[1]; LEWxBN rats,0.148
same,T-test value TRIG,[1]; LEWxBN rats,0.085
same,T-test value ALB,[1]; LEWxF344 rats,0.534
same,T-test value ALP,[1]; LEWxF344 rats,0.214
same,T-test value ALT,[1]; LEWxF344 rats,0.979
same,T-test value ANION GAP,[1]; LEWxF344 rats,0.711
same,T-test value AST,[1]; LEWxF344 rats,0.739
same,T-test value BICARB,[1]; LEWxF344 rats,0.596
same,T-test value BUN,[1]; LEWxF344 rats,0.000
same,T-test value CA,[1]; LEWxF344 rats,0.448
same,T-test value CHOL,[1]; LEWxF344 rats,0.000
same,T-test value CREAT,[1]; LEWxF344 rats,0.000
same,T-test value GLOB,[1]; LEWxF344 rats,0.361
same,T-test value GLU,[1]; LEWxF344 rats,0.695
same,T-test value K,[1]; LEWxF344 rats,0.152
same,T-test value NA,[1]; LEWxF344 rats,0.738
same,T-test value PHOS,[1]; LEWxF344 rats,0.831
same,T-test value TBILI,[1]; LEWxF344 rats,0.663
same,T-test value TP,[1]; LEWxF344 rats,0.492
same,T-test value TRIG,[1]; LEWxF344 rats,0.540
same,T-test value ALB,[1]; Panel (all six strains),0.000
same,T-test value ALP,[1]; Panel (all six strains),0.000
same,T-test value ALT,[1]; Panel (all six strains),0.693
same,T-test value ANION GAP,[1]; Panel (all six strains),0.014
same,T-test value AST,[1]; Panel (all six strains),0.227
same,T-test value BICARB,[1]; Panel (all six strains),0.000
same,T-test value BUN,[1]; Panel (all six strains),0.000
same,T-test value CA,[1]; Panel (all six strains),0.974
same,T-test value CHOL,[1]; Panel (all six strains),0.000
same,T-test value CREAT,[1]; Panel (all six strains),0.000
same,T-test value GGT,[1]; Panel (all six strains),0.024
same,T-test value GLOB,[1]; Panel (all six strains),0.016
same,T-test value GLU,[1]; Panel (all six strains),0.561
same,T-test value K,[1]; Panel (all six strains),0.000
same,T-test value NA,[1]; Panel (all six strains),0.414
same,T-test value PHOS,[1]; Panel (all six strains),0.004
same,T-test value TBILI,[1]; Panel (all six strains),0.027
same,T-test value TP,[1]; Panel (all six strains),0.487
same,T-test value TRIG,[1]; Panel (all six strains),0.058
same,T-test value ALB,[1]; WKYxBN rats,0.337
same,T-test value ALP,[1]; WKYxBN rats,0.956
same,T-test value ALT,[1]; WKYxBN rats,0.222
same,T-test value ANION GAP,[1]; WKYxBN rats,0.485
same,T-test value AST,[1]; WKYxBN rats,0.189
same,T-test value BICARB,[1]; WKYxBN rats,0.649
same,T-test value BUN,[1]; WKYxBN rats,0.001
same,T-test value CA,[1]; WKYxBN rats,0.064
same,T-test value CHOL,[1]; WKYxBN rats,0.000
same,T-test value CREAT,[1]; WKYxBN rats,0.002
same,T-test value GGT,[1]; WKYxBN rats,0.170
same,T-test value GLOB,[1]; WKYxBN rats,0.007
same,T-test value GLU,[1]; WKYxBN rats,0.968
same,T-test value K,[1]; WKYxBN rats,0.014
same,T-test value NA,[1]; WKYxBN rats,0.165
same,T-test value PHOS,[1]; WKYxBN rats,0.081
same,T-test value TBILI,[1]; WKYxBN rats,0.379
same,T-test value TP,[1]; WKYxBN rats,0.458
same,T-test value TRIG,[1]; WKYxBN rats,0.210
same,T-test value ALB,[1]; WKYxF344 rats,0.001
same,T-test value ALP,[1]; WKYxF344 rats,0.000
same,T-test value ALT,[1]; WKYxF344 rats,0.604
same,T-test value ANION GAP,[1]; WKYxF344 rats,0.868
same,T-test value AST,[1]; WKYxF344 rats,0.934
same,T-test value BICARB,[1]; WKYxF344 rats,0.004
same,T-test value BUN,[1]; WKYxF344 rats,0.000
same,T-test value CA,[1]; WKYxF344 rats,0.037
same,T-test value CHOL,[1]; WKYxF344 rats,0.004
same,T-test value CREAT,[1]; WKYxF344 rats,0.000
same,T-test value GLOB,[1]; WKYxF344 rats,0.007
same,T-test value GLU,[1]; WKYxF344 rats,0.155
same,T-test value K,[1]; WKYxF344 rats,0.583
same,T-test value NA,[1]; WKYxF344 rats,0.872
same,T-test value PHOS,[1]; WKYxF344 rats,0.282
same,T-test value TBILI,[1]; WKYxF344 rats,0.008
same,T-test value TP,[1]; WKYxF344 rats,0.054
same,T-test value TRIG,[1]; WKYxF344 rats,0.041
same,T-test value ALB,[1]; WKYxLEW rats,0.453
same,T-test value ALP,[1]; WKYxLEW rats,0.342
same,T-test value ALT,[1]; WKYxLEW rats,0.874
same,T-test value ANION GAP,[1]; WKYxLEW rats,0.033
same,T-test value AST,[1]; WKYxLEW rats,0.689
same,T-test value BICARB,[1]; WKYxLEW rats,0.266
same,T-test value BUN,[1]; WKYxLEW rats,0.009
same,T-test value CA,[1]; WKYxLEW rats,0.870
same,T-test value CHOL,[1]; WKYxLEW rats,0.019
same,T-test value CREAT,[1]; WKYxLEW rats,0.025
same,T-test value GGT,[1]; WKYxLEW rats,0.363
same,T-test value GLOB,[1]; WKYxLEW rats,0.057
same,T-test value GLU,[1]; WKYxLEW rats,0.289
same,T-test value K,[1]; WKYxLEW rats,0.137
same,T-test value NA,[1]; WKYxLEW rats,1.000
same,T-test value PHOS,[1]; WKYxLEW rats,0.055
same,T-test value TBILI,[1]; WKYxLEW rats,0.364
same,T-test value TP,[1]; WKYxLEW rats,0.008
same,T-test value TRIG,[1]; WKYxLEW rats,0.677
same,"degree of proteinuria, glucose excretion and histologic damage to renal proximal tubules between the strains",[2],marked differences
CCOC(=O)C(C)(C)Oc1ccc(Cl)cc1 [clofibrate],hepatotoxic effects relative to other strains (FAO activity),[3],resistant
same,variation in magnitude of the fall in plasma triglyceride levels,[4],3 fold
same,liver hypertrophy,[5]; all the strains,hypertrophy of the liver
same,histopathology differences between the strains within the Panel,"[5]; left lateral lobe sections, clofibrate vs. vehicle",no quantitative differences
same,AST levels (predictor of liver toxicity),[6],not significantly affected
